According to patent US20220347175A1, “PYRIDAZINONE DERIVATIVE” (Sumitomo Dainippon Pharma Co., Ltd., priority 2018, published 2022):

Target: T1, human Nav1.1 (Homo sapiens, UniProt P35498)
T1 construct: host or cells: HEK293
Assay: Amplification of Nav1.1-derived voltage-dependent sodium current (Nav1.1 current), cell line stably expressing human Nav1.1, automated patch clamp
Format: cell-based
Conditions: for activation at 10 µM: read-out: Nav1.1 current amplification rate (%)
Protocol: Test 1: Evaluation of the Amplification of Nav1.1-Derived Voltage-Dependent Sodium Current (Nav1.1 Current) by Using a Cell Line Stably Expressing Human Nav1.1
(1) Preparation of Test Compounds
Test compounds were prepared by dissolving in DMSO at 200 times of the concentration at evaluation, and diluting the obtained solution to twice the concentration of evaluation with an extracellular fluid (135 mmol/L NaCl, 4 mmol/L KCl, 1 mmol/L MgCl2, 5 mmol/L CaCl2, 5 mmol/L Glucose, 10 mmol/L HEPES).
(2) Induction and Measurement of Nav1.1 Current
A HEK293 cell line stably expressing human Nav1.1 (cat #CYL3009, Millipore, USA, Human Embryonic Kidney 293) was purchased, and used in the present test. Nav1.1 current was induced by stimulating Ramp wave voltage. Detection of current which accompanied with the stimulation of voltage was carried out by a patch-clamp voltage-clamp method using HTS automated patch clamp system (SynchroPatch 768PE, Nanion Technologies GmbH, Germany). Only cells with more than 500 pA of voltage-dependent sodium channel current were used for the evaluation of the activity of compounds on Nav1.1 current because there was the possibility that currents derived from endogenous voltage-dependent sodium channels accounted for large proportion in cells with less than 500 pA of voltage-dependent sodium channel current which was induced by stimulating Ramp wave voltage.
(3) Pharmacologic Effect on Nav1.1 Current
The effect of test compounds on the amplification of Nav1.1-derived voltage-dependent sodium current was evaluated by using a cell line stably expressing human Nav1.1 and HTS automated patch clamp system. In other words, test compounds were added in an extracellular fluid containing 1% DMSO, and evaluated as a change of the peak value of Nav1.1 current and the area under the curve (AUC).
(4) Method for Pharmacological Evaluation
The Nav1.1 current amplification rates of test compounds were calculated by the following formula:
Nav1.1 current amplification rate (%)=100×[the peak value of Nav1.1 current or the area under the curve after the addition of test compounds]/[the peak value of Nav1.1 current or the area under the curve before the addition of test compounds]−100

[1] = 10 μmol/L compound (Test Result 5)
[2] = concentration of each compound 1 μmol/L (Test Result 6)
[3] = compound 50 μmol/L, HEK293 stably expressing human Nav1.1

SMILES | Nav1.1 current amplification rate (%) [1] [%] | other results
CC1CC=C(c2ccc(=O)n(CC(=O)NC3CN(c4ccccc4)C3)n2)CC1 (racemic) [Example 372] | 52 | 
CC1CC=C(c2ccc(=O)n(CC(=O)Nc3ccnc(CN4CCOCC4)c3)n2)CC1 (racemic) [Example 373] | 35 | 
CC1CC=C(c2ccc(=O)n(CC(=O)Nc3ccc(C4=CCN(C)C4)nc3)n2)CC1 (racemic) [Example 374] | 18 | 
CC1CC=C(c2ccc(=O)n(CC(=O)Nc3ccc(-c4cnn(C)c4)nc3)n2)CC1 (racemic) [Example 375] | 173 | 
CC1CC=C(c2ccc(=O)n(CC(=O)Nc3ccc(CO)nc3)n2)CC1 (racemic) [Example 376] | 44 | 
CC1CC=C(c2ccc(=O)n(CC(=O)Nc3ccc(-n4ccnc4)nc3)n2)CC1 (racemic) [Example 377] |  | Nav1.1 current amplification rate (%) [2]: 134%
CC1CC=C(c2ccc(=O)n(CC(=O)Nc3cncc(-c4cnn(C)c4)c3)n2)CC1 (racemic) [Example 378] |  | Nav1.1 current amplification rate (%) [2]: 37%
CC1CC=C(c2ccc(=O)n(CC(=O)Nc3ccnc(-c4cnn(C)c4)c3)n2)CC1 (racemic) [Example 379] | 147 | 
Cc1ncc(-c2cncc(NC(=O)Cn3nc(C4=CCC(C)CC4)ccc3=O)c2)o1 (racemic) [Example 380] |  | Nav1.1 current amplification rate (%) [2]: 82%
CC1CC=C(c2ccc(=O)n(CC(=O)Nc3cncc(C4=COCCC4)c3)n2)CC1 (racemic) [Example 382] |  | Nav1.1 current amplification rate (%) [2]: 13%
CC1CC=C(c2ccc(=O)n(CC(=O)N3CCCN(c4cccnc4)CC3)n2)CC1 (racemic) [Example 384] |  | Nav1.1 current amplification rate (%) [2]: 15%
CC1CC=C(c2ccc(=O)n(CC(=O)N3CC=C(c4ccccn4)C3)n2)CC1 (racemic) [Example 385] |  | Nav1.1 current amplification rate (%) [3]: 42%
CC1CC=C(c2ccc(=O)n(CC(=O)N3CC=C(c4cccnc4)C3)n2)CC1 (racemic) [Example 386] |  | Nav1.1 current amplification rate (%) [3]: 126%
CC1CC=C(c2ccc(=O)n(CC(=O)N3CC=C(c4ccncc4)C3)n2)CC1 (racemic) [Example 387] |  | Nav1.1 current amplification rate (%) [2]: 19%
CC1CC=C(c2ccc(=O)n(CC(=O)N3CC=C(c4ccccc4)C3)n2)CC1 (racemic) [Example 388] | 37 | 
CC1CC=C(c2ccc(=O)n(CC(=O)N3CCC(Cc4ccccc4)C3)n2)CC1 (racemic) [Example 389] | 53 | 
CC1CC=C(c2ccc(=O)n(CC(=O)N3CCC(Oc4ccccc4)CC3)n2)CC1 (racemic) [Example 390] | 50 | 
CC1CC=C(c2ccc(=O)n(CC(=O)N3CCN(Cc4ccncc4)CC3)n2)CC1 (racemic) [Example 392] | 53 | 
CC1CC=C(c2ccc(=O)n(CC(=O)N3CCN(Cc4cccnc4)CC3)n2)CC1 (racemic) [Example 393] | 19 | 
CC1CCN(c2ccc(=O)n(CC(=O)Nc3ccc(C#N)cc3)n2)CC1 [Example 1, N-(4-cyanophenyl)-2-[3-(4-methylpiperidin-1-yl)-6-oxopyridazin-1(6H)-yl]acetamide] |  | activation at 10 µM [1]: 246%
CC1(C)CCN(c2ccc(=O)n(CC(=O)Nc3ccc(C#N)cc3)n2)CC1 [Example 2, N-(4-Cyanophenyl)-2-[3-(4,4-dimethylpiperidin-1-yl)-6-oxopyridazin-1(6H)-yl]acetamide] |  | activation at 10 µM [1]: 148%
N#Cc1ccc(NC(=O)Cn2nc(N3CCCCC3)ccc2=O)cc1 [Example 3] | 40 | 
N#Cc1ccc(NC(=O)Cn2nc(N3CCCC3)ccc2=O)cc1 [Example 4] | 3 | 
N#Cc1ccc(NC(=O)Cn2nc(N3CCC(F)(F)CC3)ccc2=O)cc1 [Example 5] | 6 | 
CC(C)(C)C1CCN(c2ccc(=O)n(CC(=O)Nc3ccc(C#N)cc3)n2)CC1 [Example 6] | 35 | 
N#Cc1ccc(NC(=O)Cn2nc(N3CCCC(O)C3)ccc2=O)cc1 (stereo not shown) [Example 7] | 3 | 
N#Cc1ccc(NC(=O)Cn2nc(N3CCCC(C(N)=O)C3)ccc2=O)cc1 (stereo not shown) [Example 8] | 4 | 
COC1CCN(c2ccc(=O)n(CC(=O)Nc3ccc(C#N)cc3)n2)CC1 [Example 9] | 11 | 

SMILES | Nav1.1 current amplification rate (%) [1] [%] | other results
N#Cc1ccc(NC(=O)Cn2nc(N3CCC(C(F)(F)F)CC3)ccc2=O)cc1 [Example 10] | 124 | 
N#Cc1ccc(NC(=O)Cn2nc(N3CCCCCC3)ccc2=O)cc1 [Example 11] | 205 | 
N#Cc1ccc(NC(=O)Cn2nc(N3CCCCCCC3)ccc2=O)cc1 [Example 12] | 241 | 
CC1CCCN(c2ccc(=O)n(CC(=O)Nc3ccc(C#N)cc3)n2)C1 (stereo not shown) [Example 13] | 76 | 
CC1CC(C)CN(c2ccc(=O)n(CC(=O)Nc3ccc(C#N)cc3)n2)C1 (stereo not shown) [Example 14] | 9 | 
CC1CC(C)CN(c2ccc(=O)n(CC(=O)Nc3ccc(C#N)cc3)n2)C1 (stereo not shown) [Example 15] | 10 | 
N#Cc1ccc(NC(=O)Cn2nc(N3CCCC(C(F)(F)F)C3)ccc2=O)cc1 (stereo not shown) [Example 16] | 59 | 
N#Cc1ccc(NC(=O)Cn2nc(N3CCC4(CC3)CC4)ccc2=O)cc1 [Example 17] | 212 | 
N#Cc1ccc(NC(=O)Cn2nc(N3CC4CC4C3)ccc2=O)cc1 (stereo not shown) [Example 18] | 11 | 
CC1CCN(c2ccc(=O)n(CC(=O)Nc3ccc(C#N)cc3)n2)C1 (stereo not shown) [Example 19] | 98 | 
N#Cc1ccc(NC(=O)Cn2nc(N3CCCC4(CC4)C3)ccc2=O)cc1 [Example 20] | 152 | 
CC1(C)CCN(c2ccc(=O)n(CC(=O)Nc3ccc(C#N)cc3)n2)C1 [Example 21] | 130 | 
CC1(C)CCCN(c2ccc(=O)n(CC(=O)Nc3ccc(C#N)cc3)n2)C1 [Example 22] | 110 | 
N#Cc1ccc(NC(=O)Cn2nc(N3CCC4(CCCC4)C3)ccc2=O)cc1 [Example 24] | 286 | 
N#Cc1ccc(NC(=O)Cn2nc(N3CCC4(CC4)C3)ccc2=O)cc1 [Example 25] | 163 | 
N#Cc1ccc(NC(=O)Cn2nc(N3CCC4(CCC4)CC3)ccc2=O)cc1 [Example 26] | 364 | 
N#Cc1ccc(NC(=O)Cn2nc(N3CCC4(CC3)COC4)ccc2=O)cc1 [Example 27] | 5 | 
CCC1(C)CCN(c2ccc(=O)n(CC(=O)Nc3ccc(C#N)cc3)n2)CC1 [Example 28] | 158 | 
N#Cc1ccc(NC(=O)Cn2nc(N3CCC4(CCCO4)CC3)ccc2=O)cc1 [Example 29] | 20 | 
CCCCN(C)c1ccc(=O)n(CC(=O)Nc2ccc(C#N)cc2)n1 [Example 30] | 77 | 
N#Cc1ccc(NC(=O)Cn2nc(N3CCC4(CCCCC4)C3)ccc2=O)cc1 [Example 31] | 220 | 
N#Cc1ccc(NC(=O)Cn2nc(N3CCC4(CC3)CC(F)(F)C4)ccc2=O)cc1 [Example 32] | 60 | 
N#Cc1ccc(NC(=O)Cn2nc(N3CCCC4(CCC4)C3)ccc2=O)cc1 [Example 33] | 220 | 
N#Cc1ccc(NC(=O)Cn2nc(N3CCC4(CCC4)C3)ccc2=O)cc1 [Example 34] | 311 | 
Cc1c(N2CCC(C)CC2)nn(CC(=O)Nc2ccc(C#N)cc2)c(=O)c1C [Example 35] | 301 | 
CC1CCN(c2nn(CC(=O)Nc3ccc(C#N)cc3)c(=O)c3c2CCCC3)CC1 [Example 36] | 312 | 
N#Cc1ccc(NC(=O)Cn2nc(C3=CCC(F)(F)CC3)ccc2=O)cc1 [Example 37, N-(4-Cyanophenyl)-2-[3-(4,4-difluorocyclohex-1-en-1-yl)-6-oxopyridazin-1(6H)-yl]acetamide] |  | activation at 10 µM [1]: 93%
